Source: US6481154B1, “Method of large-scale propagation of trees of genus Swietenia” (Sumitomo Forestry Co., Ltd., priority 2000, dated 2002)

Experiments:
Assay type in all cases: cell-based
[1] = system: single shoots of Swietenia macrophylla; assay: Rooting of single shoots on modified B5 rooting medium
Description: A large number of shoots obtained in (4) are cut to single shoots, which were then transplanted to a rooting medium. […] Culturing temperature was 26±2° C. under illumination of fluorescent lamps for 16 hours per day (3,000 to 9,000 Lux).

[2] = system: single shoots of Swietenia macrophylla; assay: Rooting condition (1): modified B5 medium for 3 months
Description: (§1) A large number of shoots obtained in (4) were cut to single shoots which were cultured in the following procedures:
(1) The single shoots were cultured on a modified B5 medium containing 0 to 10.0 mg/l of IBA for 3 months, while transplanting the shoots to a fresh medium of the same composition every month.
(§2) All the above (1)-(4) cultures were conducted under conditions wherein a temperature was 26±2° C., a humidity was 60 to 90% and a light intensity was 3,000 to 9,000 Lux. Further, all the modified media in the above (1)-(4) contained 2.8 g/l of gelright.

[3] = system: single shoots of Swietenia macrophylla; assay: Rooting conditions (3): modified MS, then modified B5, then modified MS, one month each; settings: for Rooting rate (%) For first one month / Rooting rate (%) For second one month / Rooting rate (%) For third one month / Withering rate (%) For first one month / Withering rate (%) For second one month / Withering rate (%) For third one month: rooting conditions (3)
Description: as §1
(3) The single shoots were cultured on a modified MS medium containing 0 to 10.0 mg/l of IBA for one month, then on a modified B5 medium containing 0 to 10.0 mg/l of IBA for one month and further on a modified MS medium containing 0 to 10.0 mg/l of IBA for one month.
as §2

O=C(O)CCCc1c[nH]c2ccccc12 [IBA, 3-indole butyric acid]
effectiveness for rooting ([1]; 2.5 mg/l of IBA): effective
single shoots rooted ([1]; 1.0 to 5.0 mg/l of IBA, one to two months after the start of culturing): 18.5%
Number of rooted single shoots ([1]; IBA 1.0 mg/l): 1/27
Number of rooted single shoots ([1]; IBA 2.0 mg/l): 2/30
Number of rooted single shoots ([1]; IBA 2.5 mg/l): 5/27
Number of rooted single shoots ([1]; IBA 3.0 mg/l): 0/26
Number of rooted single shoots ([1]; IBA 4.0 mg/l): 1/25
Number of rooted single shoots ([1]; IBA 5.0 mg/l): 0/26
Number of rooted single shoots ([1]; IBA 10.0 mg/l): 0/26
Rooting rate (%) For first one month ([2]; IBA 0.1 mg/l): 0.0%
Rooting rate (%) For second one month ([2]; IBA 0.1 mg/l): 0.0%
Rooting rate (%) For third one month ([2]; IBA 0.1 mg/l): 0.0%
Withering rate (%) For first one month ([2]; IBA 0.1 mg/l): 84.6%
Withering rate (%) For second one month ([2]; IBA 0.1 mg/l): 100.0%
Withering rate (%) For third one month ([2]; IBA 0.1 mg/l): 100.0%
Rooting rate (%) For first one month ([2]; IBA 1.0 mg/l): 0.0%
Rooting rate (%) For second one month ([2]; IBA 1.0 mg/l): 3.7%
Rooting rate (%) For third one month ([2]; IBA 1.0 mg/l): 3.7%
Withering rate (%) For first one month ([2]; IBA 1.0 mg/l): 14.8%
Withering rate (%) For second one month ([2]; IBA 1.0 mg/l): 55.6%
Withering rate (%) For third one month ([2]; IBA 1.0 mg/l): 96.3%
Rooting rate (%) For first one month ([2]; IBA 2.0 mg/l): 0.0%
Rooting rate (%) For second one month ([2]; IBA 2.0 mg/l): 6.7%
Rooting rate (%) For third one month ([2]; IBA 2.0 mg/l): 6.7%
Withering rate (%) For first one month ([2]; IBA 2.0 mg/l): 13.3%
Withering rate (%) For second one month ([2]; IBA 2.0 mg/l): 40.0%
Withering rate (%) For third one month ([2]; IBA 2.0 mg/l): 73.3%
Rooting rate (%) For first one month ([2]; IBA 2.5 mg/l): 0.0%
Rooting rate (%) For second one month ([2]; IBA 2.5 mg/l): 18.5%
Rooting rate (%) For third one month ([2]; IBA 2.5 mg/l): 18.5%
Withering rate (%) For first one month ([2]; IBA 2.5 mg/l): 11.1%
Withering rate (%) For second one month ([2]; IBA 2.5 mg/l): 40.7%
Withering rate (%) For third one month ([2]; IBA 2.5 mg/l): 66.7%
Rooting rate (%) For first one month ([2]; IBA 3.0 mg/l): 0.0%
Rooting rate (%) For second one month ([2]; IBA 3.0 mg/l): 0.0%
Rooting rate (%) For third one month ([2]; IBA 3.0 mg/l): 0.0%
Withering rate (%) For first one month ([2]; IBA 3.0 mg/l): 26.9%
Withering rate (%) For second one month ([2]; IBA 3.0 mg/l): 57.7%
Withering rate (%) For third one month ([2]; IBA 3.0 mg/l): 73.1%
Rooting rate (%) For first one month ([2]; IBA 4.0 mg/l): 0.0%
Rooting rate (%) For second one month ([2]; IBA 4.0 mg/l): 4.0%
Rooting rate (%) For third one month ([2]; IBA 4.0 mg/l): 4.0%
Withering rate (%) For first one month ([2]; IBA 4.0 mg/l): 40.0%
Withering rate (%) For second one month ([2]; IBA 4.0 mg/l): 72.0%
Withering rate (%) For third one month ([2]; IBA 4.0 mg/l): 100.0%
Rooting rate (%) For first one month ([2]; IBA 5.0 mg/l): 0.0%
Rooting rate (%) For second one month ([2]; IBA 5.0 mg/l): 0.0%
Rooting rate (%) For third one month ([2]; IBA 5.0 mg/l): 0.0%
Withering rate (%) For first one month ([2]; IBA 5.0 mg/l): 53.8%
Withering rate (%) For second one month ([2]; IBA 5.0 mg/l): 84.6%
Withering rate (%) For third one month ([2]; IBA 5.0 mg/l): 100.0%
Rooting rate (%) For first one month ([2]; IBA 10.0 mg/l): 0.0%
Rooting rate (%) For second one month ([2]; IBA 10.0 mg/l): 0.0%
Rooting rate (%) For third one month ([2]; IBA 10.0 mg/l): 0.0%
Withering rate (%) For first one month ([2]; IBA 10.0 mg/l): 80.8%
Withering rate (%) For second one month ([2]; IBA 10.0 mg/l): 96.2%
Withering rate (%) For third one month ([2]; IBA 10.0 mg/l): 100.0%
effectiveness versus continuous culture on a single kind of medium ([3]; 2.5 mg/l of IBA, modified MS, modified B5, modified MS, one month each): more effective
effectiveness for rooting ([3]; 2.5 mg/l of IBA, procedure (3)): particularly effective
Rooting rate (%) For first one month ([3]; IBA 0.1 mg/l): 0.0%
Rooting rate (%) For second one month ([3]; IBA 0.1 mg/l): 0.0%
Rooting rate (%) For third one month ([3]; IBA 0.1 mg/l): 0.0%
Withering rate (%) For first one month ([3]; IBA 0.1 mg/l): 7.7%
Withering rate (%) For second one month ([3]; IBA 0.1 mg/l): 73.1%
Withering rate (%) For third one month ([3]; IBA 0.1 mg/l): 84.6%
Rooting rate (%) For first one month ([3]; IBA 1.0 mg/l): 0.0%
Rooting rate (%) For second one month ([3]; IBA 1.0 mg/l): 10.0%
Rooting rate (%) For third one month ([3]; IBA 1.0 mg/l): 40.0%
Withering rate (%) For first one month ([3]; IBA 1.0 mg/l): 0.0%
Withering rate (%) For second one month ([3]; IBA 1.0 mg/l): 30.0%
Withering rate (%) For third one month ([3]; IBA 1.0 mg/l): 50.0%
Rooting rate (%) For first one month ([3]; IBA 2.0 mg/l): 0.0%
Rooting rate (%) For second one month ([3]; IBA 2.0 mg/l): 10.0%
Rooting rate (%) For third one month ([3]; IBA 2.0 mg/l): 40.0%
Withering rate (%) For first one month ([3]; IBA 2.0 mg/l): 0.0%
Withering rate (%) For second one month ([3]; IBA 2.0 mg/l): 30.0%
Withering rate (%) For third one month ([3]; IBA 2.0 mg/l): 40.0%
Rooting rate (%) For first one month ([3]; IBA 2.5 mg/l): 0.0%
Rooting rate (%) For second one month ([3]; IBA 2.5 mg/l): 40.0%
Rooting rate (%) For third one month ([3]; IBA 2.5 mg/l): 70.0%
Withering rate (%) For first one month ([3]; IBA 2.5 mg/l): 0.0%
Withering rate (%) For second one month ([3]; IBA 2.5 mg/l): 0.0%
Withering rate (%) For third one month ([3]; IBA 2.5 mg/l): 20.0%
Rooting rate (%) For first one month ([3]; IBA 3.0 mg/l): 0.0%
Rooting rate (%) For second one month ([3]; IBA 3.0 mg/l): 10.0%
Rooting rate (%) For third one month ([3]; IBA 3.0 mg/l): 30.0%
Withering rate (%) For first one month ([3]; IBA 3.0 mg/l): 0.0%
Withering rate (%) For second one month ([3]; IBA 3.0 mg/l): 50.0%
Withering rate (%) For third one month ([3]; IBA 3.0 mg/l): 50.0%
Rooting rate (%) For first one month ([3]; IBA 4.0 mg/l): 0.0%
Rooting rate (%) For second one month ([3]; IBA 4.0 mg/l): 0.0%
Rooting rate (%) For third one month ([3]; IBA 4.0 mg/l): 0.0%
Withering rate (%) For first one month ([3]; IBA 4.0 mg/l): 20.0%
Withering rate (%) For second one month ([3]; IBA 4.0 mg/l): 60.0%
Withering rate (%) For third one month ([3]; IBA 4.0 mg/l): 80.0%
Rooting rate (%) For first one month ([3]; IBA 5.0 mg/l): 0.0%
Rooting rate (%) For second one month ([3]; IBA 5.0 mg/l): 0.0%
Rooting rate (%) For third one month ([3]; IBA 5.0 mg/l): 0.0%
Withering rate (%) For first one month ([3]; IBA 5.0 mg/l): 40.0%
Withering rate (%) For second one month ([3]; IBA 5.0 mg/l): 50.0%
Withering rate (%) For third one month ([3]; IBA 5.0 mg/l): 100.0%
Rooting rate (%) For first one month ([3]; IBA 10.0 mg/l): 0.0%
Rooting rate (%) For second one month ([3]; IBA 10.0 mg/l): 0.0%
Rooting rate (%) For third one month ([3]; IBA 10.0 mg/l): 0.0%
Withering rate (%) For first one month ([3]; IBA 10.0 mg/l): 50.0%
Withering rate (%) For second one month ([3]; IBA 10.0 mg/l): 100.0%
Withering rate (%) For third one month ([3]; IBA 10.0 mg/l): 100.0%
single shoots rooted ([3]; procedure (3), 3 months after the start of culturing, 2.5 mg/l of IBA): 70.0%
